Experimental data from patent US20090068258A1, “Caveolin-mimetic peptide for prevention and treatment of pulmonary hypertension and right ventricular hypertrophy” (priority 2007, published 2009).
Residues, ends and D or L forms follow the SMILES beside them. *: point of attachment. Biotin = O=C1N[C@H]2[C@H](CS[C@H]2CCCCC(=O)*)N1

How the values were obtained:
[1] = tested on: cyclin D1; assay: Immunoblot analysis of lung cyclin D1 in MCT rats; type: in vivo, Sprague-Dawley rats
Method: (§1) Male Sprague-Dawley rats (Charles River, Wilmington, Mass.) weighing between 250-300 g received a single intraperitoneal (ip) injection of either 0.5 ml 0.9% NaCl or 0.5 ml 60 mg/kg MCT. Thirty minutes later, rats were randomly assigned to receive a daily ip injection of either 0.5 ml 0.9% NaCl, 0.5 ml AP (2.5 mg/kg/d) or 0.5 ml AP-Cav (2.5 mg/kg/d) for 2 weeks.
(§2) Immunoblot Analysis. Lung samples from Control (n=17), Control+AP-Cav (n=10), MCT (n=25), MCT+AP (n=19), and MCT+AP-Cav (n=24) groups were homogenized in a RIPA lysis buffer containing protease and phosphatase inhibitors. Proteins were then separated by SDS-PAGE (12% acrylamide) and transferred to nitrocellulose membranes. The membranes were placed in blocking solution for 30 min. Afterwards, the membranes were washed and incubated with a given primary antibody for 1 hour (Cav-1, -2 and β-actin) or 3 hours (eNOS, STAT3, PY-STAT3, cyclin D1, and cyclin D3). […] Western blots for Cav-1, Cav-2, eNOS, PY-STAT3, cyclin D1 and cyclin D3 were subsequently quantitated using the NIH Image J software (using the mean gray value for each band).
(§3) Statistical Analysis. Hemodynamic and morphometric variables as well as the mean gray value of each western blot are expressed as mean±S.E.M. Differences between the 5 groups were evaluated by ANOVA, followed by Tukey's multiple-group comparisons test. […]

[2] = tested on: Cav-1; assay: Dual-label immunofluorescence analysis of Cav-1 in pulmonary arteries of MCT rats; type: in vivo, Sprague-Dawley rats
Method: as §1
(§4) Immunofluorescence Analysis. As mentioned above, the left lung of Control (n=17), Control+AP-Cav (n=10), MCT (n=25), MCT+AP (n=19), and MCT+AP-Cav (n=24) rats was dissected and perfused-fixed. Transverse sections were obtained and embedded with paraffin. Sections of 10 μm were cut and stained with hematoxylin and eosin (H&E).
(§5) Paraffin from 10 μm-thick sections was removed by immersion in xylene. These sections were then rehydrated with graded alcohol to water and blocked overnight. The sections were subsequently incubated with a given primary antibody for three hours. FITC- and TRITC-conjugated secondary antibodies were then added to the sections after a 15 min wash in PBS. After 1 hr of incubation with the secondary antibodies, the sections were washed in PBS and mounted using Prolong Gold antifade reagent (Molecular Probes, Carlsbad, Calif.).

[3] = tested on: PY-STAT3; assay: Immunoblot analysis of lung PY-STAT3 in MCT rats; type: in vivo, Sprague-Dawley rats
Method: as §1, §2, §3

[4] = tested on: Cav-2; assay: Dual-label immunofluorescence analysis of Cav-2 in pulmonary arteries of MCT rats; type: in vivo, Sprague-Dawley rats
Method: as §1, §4, §5

[5] = tested on: pulmonary arteries of MCT rats; assay: Lung vascular morphometry (percent medial wall thickness) in MCT rats; type: in vivo, Sprague-Dawley rats
Method: as §1
(§6) Lung Vascular Morphometry. H&E sections of the left lung (n=10 for each groups) were microscopically assessed for the medial wall thickness of pulmonary arteries. Measurements of the luminal diameter and the medial thickness on either side were obtained using the Image J software. Measurements were made on 30 muscular arteries (<50 μm, 51-100 μm, and 100-150 μm of external diameter) per lung section. The medial wall thickness was then related to the external diameter and expressed as percent wall thickness, as previously described^20.
(§7) Statistical Analysis. Hemodynamic and morphometric variables as well as the mean gray value of each western blot are expressed as mean±S.E.M. Differences between the 5 groups were evaluated by ANOVA, followed by Tukey's multiple-group comparisons test. Statistical significance was assumed at p<0.05.

[6] = tested on: Cav-2; assay: Immunoblot analysis of lung Cav-2 protein levels in MCT rats; type: in vivo, Sprague-Dawley rats
Method: as §1, §2, §3

[7] = tested on: cyclin D3; assay: Immunoblot analysis of lung cyclin D3 in MCT rats; type: in vivo, Sprague-Dawley rats
Method: as §1, §2, §3

[8] = tested on: rats with MCT-induced PH; assay: Hemodynamic and morphometric variables in rats with MCT-induced PH; type: in vivo, Sprague-Dawley rats; conditions: MCT 60 mg/kg ip rats, peptide 2.5 mg/kg/d ip for 2 weeks; for RV/LV+septum weight ratio: Control rats 25.3±0.5, MCT rats 31.1±0.6; for RV systolic pressures: Control rats 26.0±0.9, MCT rats 40.2±1.5; for BW (body weight) / CVP (central venous pressure) / Dry lung weight/BW / Dry/wet lung weight / HR (heart rate) / LV(+)dP/dt / LV(−)dP/dt / LV/BW / LVEDP (LV-end diastolic pressure) / MAP (mean arterial pressure) / RV(+)dP/dt / RV(−)dP/dt / RV/BW / RVEDP (RV-end diastolic pressure) / Wet lung weight/BW: mean±S.E.M.
Method: as §1
(§8) At two weeks, rats were anesthetized with xylazine (10 mg/kg)-ketamine (50 mg/kg) followed by 2000 U heparin (Sigma-Aldrich). The right jugular vein and carotid artery were then isolated and incised, and millar catheters (SPR-249, Millar Instruments, Houston, Tex.) were advanced into the right and left ventricles (RV and LV) for hemodynamic measurements. The RV and LV pressures were recorded with the Ponemah P3-Data acquisition system (LDS Test and Measurement, Middleton, Wis.).
(§9) Afterwards, the lower lobe of the right lung and the heart were dissected and weighed to respectively determine pulmonary edema and RV hypertrophy, as previously described^11. The remaining lobes of the right lung were submerged in liquid nitrogen and frozen at −80° C. The left pulmonary artery was then cannulated and perfused with 4% paraformaldehyde (PFA) for 2 min. This was followed by perfusion of the airways with 4% PFA for 2 min. The left lung was then immersed in 4% PFA for 24 hours.
as §7

[9] = tested on: Cav-1; assay: Immunoblot analysis of lung Cav-1 protein levels in MCT rats; type: in vivo, Sprague-Dawley rats
Method: as §1, §2, §3

[10] = tested on: Control rats; assay: Hemodynamic and morphometric variables in Control rats (0.9% NaCl instead of MCT); type: in vivo, Sprague-Dawley rats
Method: as §1, §8, §9, §7

[11] = tested on: mice; conditions: in vivo delivery, previous reports (refs 17;18); cited from earlier work
[12] = tested on: pulmonary arteries of Control rats; assay: Lung vascular morphometry (percent medial wall thickness) in Control rats; type: in vivo, Sprague-Dawley rats; conditions: data not shown
Method: as §1, §6, §7

[13] = Control rats (no MCT), peptide 2.5 mg/kg/d ip for 2 weeks, mean±S.E.M.

For `CC[C@H](C)[C@H](NC(=O)[C@H](CCCCN)NC(=O)[C@@H]1CCCN1C(=O)[C@H](CCC(N)=O)NC(=O)[C@H](CCCNC(=N)N)NC(=O)CCCC[C@@H]1SC[C@@H]2NC(=O)N[C@@H]21)C(=O)N[C@@H](Cc1c[nH]c2ccccc12)C(=O)N[C@@H](Cc1ccccc1)C(=O)N1CCC[C@H]1C(=O)N[C@@H](CC(N)=O)C(=O)N[C@@H](CCCNC(=N)N)C(=O)N[C@@H](CCCNC(=N)N)C(=O)N[C@@H](CCCCN)C(=O)N1CCC[C@H]1C(=O)N[C@@H](Cc1c[nH]c2ccccc12)C(=O)N[C@@H](CCCCN)C(=O)N[C@@H](CCCCN)C(=O)O` [AP, (biotin)-RQPKIWFPNRRKPWKK (SEQ ID NO:1)—(OH)] (Biotin-RQPKIWFPNRRKPWKK-OH), the “increase in cyclin D1 protein levels in the lungs” value ([1]; vs Control rats) was about 4 fold, the “Cav-1 expression in pulmonary arteries” value [2] was “marked reductions” and the “increased levels of PY-STAT3 in the lungs” value ([3]; vs Control rats) was about 5 fold. The “Cav-2 expression in pulmonary arteries” value [4] was “marked reductions”, the “increased percent medial wall thickness of pulmonary arteries” value ([5]; arteries <50 μm, 51-100 μm, 100-150 μm, vs Control rats) was 2-3 fold and the “decrease of Cav-2 protein levels in the lungs” value ([6]; vs Control rats) was about 2 fold. For the same compound, the “increase in cyclin D3 protein levels in the lungs” value ([7]; vs Control rats) was about 4 fold, the “RV/LV+septum weight ratio” value [8] was 30.6±0.6% and the RV systolic pressures [8] was 39.6±1.5 mmHg. For the same compound, the “BW (body weight)” value [8] was 335 ± 7 g, the “CVP (central venous pressure)” value [8] was 5.1 ± 0.3 mmHg and the “Dry lung weight/BW” value [8] was 0.033 ± 0.001 %. The Dry/wet lung weight [8] was 19.7 ± 0.4%, the “HR (heart rate)” value [8] was 274 ± 12 beats/min and the “LV(+)dP/dt” value [8] was 6268 ± 339 mmHg/s. For the same compound, the “LV(−)dP/dt” value [8] was 4319 ± 286 mmHg/s, the LV/BW [8] was 0.200 ± 0.004% and the “LVEDP (LV-end diastolic pressure)” value [8] was 2.7 ± 0.3 mmHg. The “MAP (mean arterial pressure)” value [8] was 85.3 ± 4.4 mmHg, the “RV(+)dP/dt” value [8] was 1931 ± 78 mmHg/s and the “RV(−)dP/dt” value [8] was 1395 ± 72 mmHg/s. The RV/BW [8] was 0.061 ± 0.002 %, the “RVEDP (RV-end diastolic pressure)” value [8] was 5.1 ± 0.3 mmHg and the “Wet lung weight/BW” value [8] was 0.170 ± 0.007 %. For the same compound, the “decrease of Cav-1 protein levels in the lungs” value ([9]; vs Control rats) was about 3 fold.
In the case of “(biotin)-RQPKTWFPNRRKPWKK-DGIWKASFTTFTVTKYWFYR (SEQ ID NO:10)—(OH) [AP-Cav]”, the “pulmonary cyclin D1 expression (effect in words)” value ([1]; 2.5 mg/kg/d ip for 2 weeks) is reported as “prevented the upregulation”, the “BW (body weight)” value [10, 13] is reported as 407 ± 12 g and the “CVP (central venous pressure)” value [10, 13] is reported as 3.1 ± 0.1 mmHg. For the same compound, the “Dry lung weight/BW” value [10, 13] was 0.019 ± 0.000%, the Dry/wet lung weight [10, 13] was 20.8 ± 0.1% and the “HR (heart rate)” value [10, 13] was 270 ± 6 beats/min. For the same compound, the “LV(+)dP/dt” value [10, 13] was 6216 ± 446 mmHg/s, the “LV(−)dP/dt” value [10, 13] was 4614 ± 320 mmHg/s and the LV/BW [10, 13] was 0.194 ± 0.005%. For the same compound, the “LVEDP (LV-end diastolic pressure)” value [10, 13] was 3.0 ± 0.3 mmHg, the “MAP (mean arterial pressure)” value [10, 13] was 79.4 ± 3.4 mmHg and the “RV(+)dP/dt” value [10, 13] was 1435 ± 60 mmHg/s. For the same compound, the “RV(−)dP/dt” value [10, 13] was 988 ± 46 mmHg/s, the RV/BW [10, 13] was 0.050 ± 0.001% and the “RVEDP (RV-end diastolic pressure)” value [10, 13] was 2.8 ± 0.2 mmHg. The “Wet lung weight/BW” value [10, 13] was 0.091 ± 0.001%, the “effect on hemodynamic and morphometric variables” value ([10]; Control rats, compared to Control group receiving 0.9% NaCl alone) was “did not affect” and the “Cav-1 expression in pulmonary arteries” value [2] was “prevented”. The “STAT3 signaling cascade (PY-STAT3) in the lungs (effect in words)” value ([3]; 2.5 mg/kg/d ip for 2 weeks) was “prevented the hyper-activation”, the “Cav-2 expression in pulmonary arteries” value [4] was “prevented” and the “systemic blood pressure, blood flow, and heart rate” value [11] was “had no effect”. For the same compound, the “percent medial wall thickness of pulmonary arteries (effect in words)” value ([5]; 2.5 mg/kg/d ip for 2 weeks) was “significantly reduced”, the “pulmonary Cav-2 protein levels (effect in words)” value ([6]; 2.5 mg/kg/d ip for 2 weeks) was “significantly prevented the reduction” and the “pulmonary cyclin D3 expression (effect in words)” value ([7]; 2.5 mg/kg/d ip for 2 weeks) was “prevented the upregulation”. The “RV/LV+septum weight ratio” value [8] was 24.6±0.5%, the RV systolic pressures [8] was 30.1±1.3 mmHg and the “BW (body weight)” value [8] was 371 ± 9 g. For the same compound, the “CVP (central venous pressure)” value [8] was 3.2 ± 0.2 mmHg, the “Dry lung weight/BW” value [8] was 0.028 ± 0.001 % and the Dry/wet lung weight [8] was 20.7 ± 0.3%. For the same compound, the “HR (heart rate)” value [8] was 261 ± 12 beats/min, the “LV(+)dP/dt” value [8] was 5766 ± 335 mmHg/s and the “LV(−)dP/dt” value [8] was 3891 ± 309 mmHg/s. The LV/BW [8] was 0.200 ± 0.003%, the “LVEDP (LV-end diastolic pressure)” value [8] was 2.7 ± 0.3 mmHg and the “MAP (mean arterial pressure)” value [8] was 82.6 ± 2.9 mmHg. For the same compound, the “RV(+)dP/dt” value [8] was 1489 ± 18 mmHg/s, the “RV(−)dP/dt” value [8] was 1107 ± 61 mmHg/s and the RV/BW [8] was 0.049 ± 0.001 %. For the same compound, the “RVEDP (RV-end diastolic pressure)” value [8] was 3.0 ± 0.2 mmHg, the “Wet lung weight/BW” value [8] was 0.132 ± 0.004 % and the “percent medial wall thickness of pulmonary arteries (effect in words)” value [12] was “had no effect”. For the same compound, the “pulmonary Cav-1 protein levels (effect in words)” value ([9]; 2.5 mg/kg/d ip for 2 weeks) was “significantly prevented the reduction”.
